Data published in patent publication US11052154B2, “Ras protein degradation inducing molecule and pharmaceutical composition” (Tokyo University of Science Foundation, priority 2016, dated 2021).

Key:
[1] = test system: HeLa cells; test: Apoptosis induction in HeLa cells, FACS analysis (Annexin V/PI); type: cell-based, human; details: HeLa cells expressing wild-type K-Ras, 24 hours after addition; FIGS. 6A, 7A
Procedure: In Example 7, apoptosis induction in a case where TUS-007, Ras-SOS, or Ras-SOS-NH2 was added to HeLa cells or SW1990 cells (human pancreatic cancer cells) had been added was evaluated by the FACS analysis. It is noted that in HeLa cells, the wild-type K-Ras protein (K-Ras-WT) is expressed, and in SW1990 cells, the G12D mutant K-Ras protein (K-Ras-G12D) is expressed.
HeLa cells or SW1990 cells were seeded in a 24-well plate at a cell density of 8×10^4 cells/well, and then cultured under conditions of 37° C. and 5 vol % CO2 for 16 hours.
After 16 hours from cell seeding, TUS-007, Ras-SOS, or Ras-SOS-NH2 were added to HeLa cells or SW1990 cells as follows. As a medium, a serum-free medium (37° C.) in which 1 mass % L-glutamine solution (Sigma-Aldrich) was added to D-MEM (high D-glucose, phenol red, sodium pyruvate (Wako Pure Chemical Industries, Ltd.)) was used. It is noted that the L-glutamine solution was added immediately before use. A DMSO solution containing TUS-007, Ras-SOS, or Ras-SOS-NH2 was mixed with the medium so that the concentration of DMSO was 1 vol %, and added to each well at 500 μL/well, and cultured under conditions of 37° C. and 5 vol % CO2. As a control, DMSO was used.
The medium was removed 24 hours after addition of TUS-007, Ras-SOS, or Ras-SOS-NH2, and then PBS was added to wash the cells. After removing PBS, trypsin (0.25 w/v % trypsin-1 mmol/L EDTA⋅4 Na solution with phenol red) (Wako Pure Chemical Industries, Ltd.) at 37° C. was added to each well at 200 μL/well, and cultured under conditions of 37° C. and 5 vol % CO2 for 1 minute. […]
A BD FACSCanto™ II (BD Biosciences) was used for flow cytometry. […] The proportion of Annexin V-positive and PI-negative cells was calculated using an analysis software FlowJo™ (TOMY Digital Biology Co., Ltd.), and the proportion was defined as a proportion of apoptosis cells.
In Example 8, apoptosis induction in a case where TUS-007, Ras-SOS-NH2, or erlotinib as an anticancer agent (EGFR inhibitor) was added to HeLa cells or SW1990 cells was evaluated by FACS analysis as in Example 7.

[2] = Body weight change and general condition of mice with subcutaneously implanted SW1990 cells; type: in vivo, mouse; details: oral 80 mg/kg once every 3 days, 7 doses
Procedure: To the subcutis of T-cell deficient mice (BALB/cAJcl-nu/nu, 4 weeks old, female) (CLEA Japan, Inc.), 0.1 mL of cell suspension in which SW1990 cells were suspended in PBS so as to be 1×10^7 cells/mL was implanted using a 26-gauge injection needle (TERUMO CORPORATION).
Immediately before administration, TUS-007 was dissolved in DMSO, 0.5 mass % carboxymethyl cellulose (Code No. 039-01335, Wako Pure Chemical Industries, Ltd.) solution was added so that the concentration of DMSO became 2.5 vol %, followed by pulverization by ultrasonic treatment to prepare a suspension of TUS-007. When the tumors of mice with subcutaneously implanted SW1990 cells grew to a size of approximately 100 mm^3, the prepared TUS-007 suspension was orally administered by gavage with a gastric tube (Code No. 5202K, Fuchigami Kikai) at a dose of 80 mg/kg body weight once every 3 days for a total of 7 doses (n=6 to 9). As a control (Vehicle), 0.5 mass % carboxymethyl cellulose solution containing 2.5 vol % DMSO was administered in the same manner.

CCC(C)[C@H](NC(=O)CCCCCCNC(=O)[C@H](CC(C)C)NC(=O)CNC(=O)c1cc(Cl)ccc1Cl)C(=O)Nc1ccc2[nH]c(Cc3c[nH]c4ccccc34)nc2c1 (stereo in doubt) [TUS-007]
apoptosis induction (proportion of Annexin V-positive and PI-negative cells) [1]: apoptosis was induced in a concentration-dependent manner
general condition of the mice [2]: no abnormality in the general condition of the mice
body weight changes ([2]; vs Vehicle, FIG. 9B): no significant differences in body weight changes
